Test results from US20200370087A1, “METHOD FOR DETERMINING MICROBIAL SUSCEPTIBILITY TO ANTIBIOTIC AGENTS” (Ascilion AB, priority 2017, published 2020).

Assays:
[1] = system: Escherichia coli (ATCC 25922); test: Glucose consumption susceptibility test, blood culture diluted in MHB with glucose (Example 1); format: cell-based; set-up: glucose concentration, t = 0 / glucose concentration, t = 60 / glucose concentration, t = 120 / glucose concentration, t = 180 / dC/dT (rate of change in glucose concentration) / glucose concentration, t = 240: unit not given here; conditions: for F = the rate of change in glucose concentration in relation to the reference / dC/dT (rate of change in glucose concentration) / glucose concentration, t = 0 / glucose concentration, t = 60 / glucose concentration, t = 120 / glucose concentration, t = 180 / glucose concentration, t = 240: E. coli; for glucose concentration, t = 0: 0 minutes; for glucose concentration, t = 60: 60 minutes; for glucose concentration, t = 120: 120 minutes; for glucose concentration, t = 180: 180 minutes; for glucose concentration, t = 240: 240 minutes
Description: Strains of Escherichia coli (ATCC 25922), Enterococcus faecalis (ATCC 29212) and Staphylococcus aureus (ATCC 29213) were inoculated in blood culture bottles (SVA, Uppsala, Sweden) and cultivated according to the manufacturer's instructions until positive.
Medium from each blood culture bottle was diluted 1:100 with cation adjusted Mueller-Hinton broth (SVA, Uppsala, Sweden) supplemented with glucose to a concentration of 1.0 mg/mL.
Glucose concentrations were measured at 0, 60, 120, 180, and 240 minutes using a WaveSense Jazz glucometer (AgaMatrix, Inc., Salem, N.H., USA) with accompanying test strips.
Susceptibility scores corresponding to MIC values were calculated as described above. A 80% threshold was applied, i.e. the lowest concentration of antibiotic that entailed a rate of change in glucose concentration that was equal to or less than 80% of the reference was selected as the Minimal Inhibitory Concentration. The rate of change was calculated between the measurements at 60 and 180 minutes.

S. aureus = test: Qualitative glucose consumption test, bacteria from plated cultures (Example 2, Table 6); format: cell-based; conditions: S. aureus from plated culture, antibiotic 256 μg/mL
Description: If the susceptibility score is a qualitative susceptibility score classifying the microorganism as “susceptible”, or “non-susceptible” to an antibiotic agent the answer could be given in as little as 1 hour.
Bacteria from plated cultures were suspended in cation adjusted Mueller-Hinton broth (SVA, Uppsala, Sweden) supplemented with glucose. Consequently, the concentration of microorgansims was typically two orders of magnitude higher as compared to Example 1. […] The tested microorganisms was one strain of E. faecium, two strains of E. coli and one S. aureus.

[2] = system: Enterococcus faecalis ATCC 29212; conditions: E.faecalis, cited from earlier work
[3] = system: Escherichia coli ATCC 25922; conditions: E.coli, cited from earlier work
E. coli ATCC 25922 [4] = test: Qualitative glucose consumption test, directly from positive BC-bottles (Example 2, Table 7); format: cell-based; conditions: E. coli ATCC 25922 from positive BC-bottle, antibiotic 256 μg/mL
E. faecium [5] = test: as above; format: cell-based; conditions: E. faecium from positive BC-bottle, antibiotic 256 μg/mL
Description: With slightly lower microbe concentrations e.g. directly from positive BC-bottles (^˜10^9 CFU/ml) the results are shown at least within 2 hours, where E. coli ATCC 25922 is classified as susceptible and E. faecium is non-susceptible.

E. coli 17 = test: Qualitative glucose consumption test, bacteria from plated cultures (Example 2, Table 6); format: cell-based; conditions: E. coli 17 from plated culture, antibiotic 256 μg/mL
Description: (§1) If the susceptibility score is a qualitative susceptibility score classifying the microorganism as “susceptible”, or “non-susceptible” to an antibiotic agent the answer could be given in as little as 1 hour. Bacteria from plated cultures were suspended in cation adjusted Mueller-Hinton broth (SVA, Uppsala, Sweden) supplemented with glucose. Consequently, the concentration of microorgansims was typically two orders of magnitude higher as compared to Example 1. […] The tested microorganisms was one strain of E. faecium, two strains of E. coli and one S. aureus.

E. coli ATCC 25922 [6] = test: as above; format: cell-based; conditions: E. coli ATCC 25922 from plated culture, antibiotic 256 μg/mL
Description: as §1

E. faecium [7] = test: as above; format: cell-based; conditions: E. faecium from plated culture, antibiotic 256 μg/mL
Description: as §1

[8] = range obtained by EUCAST from ISO 20776-1: 2006
[9] = reference value, Mueller-Hinton agar, incubation 18±2 h, N/A = not susceptible

gentamicin
F = the rate of change in glucose concentration in relation to the reference ([1]; antibiotic 0.25 μg/mL): 139%
dC/dT (rate of change in glucose concentration) ([1]; antibiotic 0.25 μg/mL): 86
glucose concentration, t = 0 ([1]; antibiotic 0.25 μg/mL): 149
glucose concentration, t = 60 ([1]; antibiotic 0.25 μg/mL): 152
glucose concentration, t = 120 ([1]; antibiotic 0.25 μg/mL): 144
glucose concentration, t = 180 ([1]; antibiotic 0.25 μg/mL): 58
F = the rate of change in glucose concentration in relation to the reference ([1]; antibiotic 0.5 μg/mL): 121%
dC/dT (rate of change in glucose concentration) ([1]; antibiotic 0.5 μg/mL): 75
glucose concentration, t = 0 ([1]; antibiotic 0.5 μg/mL): 144
glucose concentration, t = 60 ([1]; antibiotic 0.5 μg/mL): 147
glucose concentration, t = 120 ([1]; antibiotic 0.5 μg/mL): 147
glucose concentration, t = 180 ([1]; antibiotic 0.5 μg/mL): 72
F = the rate of change in glucose concentration in relation to the reference ([1]; antibiotic 1 μg/mL): 77%
dC/dT (rate of change in glucose concentration) ([1]; antibiotic 1 μg/mL): 48
glucose concentration, t = 0 ([1]; antibiotic 1 μg/mL): 144
glucose concentration, t = 60 ([1]; antibiotic 1 μg/mL): 155
glucose concentration, t = 120 ([1]; antibiotic 1 μg/mL): 148
glucose concentration, t = 180 ([1]; antibiotic 1 μg/mL): 111
glucose concentration, t = 240 ([1]; antibiotic 1 μg/mL): 53
F = the rate of change in glucose concentration in relation to the reference ([1]; antibiotic 2 μg/mL): 9%
dC/dT (rate of change in glucose concentration) ([1]; antibiotic 2 μg/mL): 6
glucose concentration, t = 60 ([1]; antibiotic 2 μg/mL): 161
glucose concentration, t = 120 ([1]; antibiotic 2 μg/mL): 151
glucose concentration, t = 180 ([1]; antibiotic 2 μg/mL): 143
glucose concentration, t = 240 ([1]; antibiotic 2 μg/mL): 140
F = the rate of change in glucose concentration in relation to the reference ([1]; antibiotic 4 μg/mL): 7%
dC/dT (rate of change in glucose concentration) ([1]; antibiotic 4 μg/mL): 5
glucose concentration, t = 0 ([1]; antibiotic 4 μg/mL): 147
glucose concentration, t = 60 ([1]; antibiotic 4 μg/mL): 163
glucose concentration, t = 120 ([1]; antibiotic 4 μg/mL): 157
glucose concentration, t = 180 ([1]; antibiotic 4 μg/mL): 148
glucose concentration, t = 240 ([1]; antibiotic 4 μg/mL): 148
F = the rate of change in glucose concentration in relation to the reference ([1]; antibiotic 8 μg/mL): 7%
dC/dT (rate of change in glucose concentration) ([1]; antibiotic 8 μg/mL): 5
glucose concentration, t = 0 ([1]; antibiotic 8 μg/mL): 144
glucose concentration, t = 60 ([1]; antibiotic 8 μg/mL): 156
glucose concentration, t = 120 ([1]; antibiotic 8 μg/mL): 153
glucose concentration, t = 180 ([1]; antibiotic 8 μg/mL): 150
glucose concentration, t = 240 ([1]; antibiotic 8 μg/mL): 144
F = the rate of change in glucose concentration in relation to the reference ([1]; antibiotic 16 μg/mL): 1%
dC/dT (rate of change in glucose concentration) ([1]; antibiotic 16 μg/mL): 1
glucose concentration, t = 0 ([1]; antibiotic 16 μg/mL): 143
glucose concentration, t = 60 ([1]; antibiotic 16 μg/mL): 155
glucose concentration, t = 120 ([1]; antibiotic 16 μg/mL): 152
glucose concentration, t = 180 ([1]; antibiotic 16 μg/mL): 149
glucose concentration, t = 240 ([1]; antibiotic 16 μg/mL): 153
F = the rate of change in glucose concentration in relation to the reference ([1]; antibiotic 32 μg/mL): 6%
dC/dT (rate of change in glucose concentration) ([1]; antibiotic 32 μg/mL): 4
glucose concentration, t = 0 ([1]; antibiotic 32 μg/mL): 148
glucose concentration, t = 60 ([1]; antibiotic 32 μg/mL): 158
glucose concentration, t = 120 ([1]; antibiotic 32 μg/mL): 155
glucose concentration, t = 180 ([1]; antibiotic 32 μg/mL): 150
glucose concentration, t = 240 ([1]; antibiotic 32 μg/mL): 147
MIC, Measured ([1]; E.coli, 80% threshold of reference rate of change, 60 to 180 minutes, N/A = not susceptible, no MIC value can be calculated): 1 µg/mL
qualitative susceptibility score (S. aureus): susceptible
glucose concentration, t = 15 (S. aureus; t = 15): 137
glucose concentration, t = 30 (S. aureus; t = 30): 139
glucose concentration, t = 45 (S. aureus; t = 45): 131
MIC, EUCAST, range in parentheses [2, 8]: (4-16) ug/mL
MIC, EUCAST [2, 9]: 8 µg/mL
MIC, EUCAST, range in parentheses [3, 8]: (0.25-1) ug/mL
MIC, EUCAST [3, 9]: 0.5 µg/mL
glucose concentration, t = 0 (E. coli ATCC 25922 [4]; t = 0): 145
glucose concentration, t = 45 (E. coli ATCC 25922 [4]; t = 45): 155
glucose concentration, t = 60 (E. coli ATCC 25922 [4]; t = 60): 151
glucose concentration, t = 90 (E. coli ATCC 25922 [4]; t = 90): 140
glucose concentration, t = 105 (E. coli ATCC 25922 [4]; t = 105): 135
qualitative susceptibility score (E. coli ATCC 25922 [4]; within 2 hours): susceptible
glucose concentration, t = 0 (E. faecium [5]; t = 0): 144
glucose concentration, t = 45 (E. faecium [5]; t = 45): 105
glucose concentration, t = 60 (E. faecium [5]; t = 60): 77
glucose concentration, t = 75 (E. faecium [5]; t = 75): 47
qualitative susceptibility score (E. faecium [5]; within 2 hours): non-susceptible
qualitative susceptibility score (E. coli 17): susceptible
glucose concentration, t = 15 (E. coli 17; t = 15): 131
glucose concentration, t = 30 (E. coli 17; t = 30): 126
glucose concentration, t = 45 (E. coli 17; t = 45): 123
qualitative susceptibility score (E. coli ATCC 25922 [6]): susceptible
glucose concentration, t = 15 (E. coli ATCC 25922 [6]; t = 15): 156
glucose concentration, t = 30 (E. coli ATCC 25922 [6]; t = 30): 155
glucose concentration, t = 45 (E. coli ATCC 25922 [6]; t = 45): 136
qualitative susceptibility score (E. faecium [7]): non-susceptible
glucose concentration, t = 0 (E. faecium [7]; t = 0): 79
glucose concentration, t = 15 (E. faecium [7]; t = 15): 47
